From the supplement of paper PMC10307832

What was measured:
Assay in all cases: relative viability (nuclei count vs DMSO), 5 days (fraction); higher = more cells survive
Vandetanib + Palbociclib = compound: COc1cc2/c(=N/c3ccc(Br)cc3F)nc[nH]c2cc1OCC1CCN(C)CC1 [Vandetanib] + CC(=O)c1c(C)c2cnc(Nc3ccc(N4CCNCC4)cn3)nc2n(C2CCCC2)c1=O [Palbociclib] (partner 0.5 µM)
Method in brief: (§1)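 Each reported value is a median over duplicate plates. It expresses relative viability: treated-well nuclei count divided by vehicle-well nuclei count. Lung cancer cell lines in 1536-well plates were dosed by pin tool a day after seeding, alone with one drug or with a fixed anchor-drug dose plus five library-drug doses (not always all listed) in √10 steps, and nuclei were counted after 5 days.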

[1] = compound: C1=CC=C2C(=C1)N=C(S2)C(C#N)C3=NC(=NC=C3)NCCC4=CN=CC=C4 + CC(C)C[C@H](NC(=O)[C@H](Cc1ccccc1)NC(=O)c1cnccn1)B(O)O [Bortezomib] (partner 0.002 µM)
Method in brief: as §1

Vandetanib + Linsitinib = compound: COc1cc2/c(=N/c3ccc(Br)cc3F)nc[nH]c2cc1OCC1CCN(C)CC1 [Vandetanib] + C[C@]1(O)C[C@@H](c2nc(-c3ccc4ccc(-c5ccccc5)nc4c3)c3c(N)nccn32)C1 [Linsitinib] (partner 1 µM)
Method in brief: as §1

[2] = compound: C1=CC=C2C(=C1)N=C(S2)C(C#N)C3=NC(=NC=C3)NCCC4=CN=CC=C4 + COc1cc2c(Oc3ccc(NC(=O)C4(C(=O)Nc5ccc(F)cc5)CC4)cc3F)ccnc2cc1OCCCN1CCOCC1 [Foretinib] (partner 0.25 µM)
Method in brief: as §1

Cell Line | relative viability (Vandetanib + Palbociclib; first compound 0.02 µM) | relative viability (Vandetanib + Palbociclib; first compound 0.06325 µM) | relative viability (Vandetanib + Palbociclib; first compound 0.2 µM) | relative viability (Vandetanib + Palbociclib; first compound 0.6325 µM) | relative viability (Vandetanib + Palbociclib; first compound 2 µM) | relative viability ([1]; first compound 0.005 µM) | relative viability ([1]; first compound 0.01581 µM) | relative viability ([1]; first compound 0.05 µM) | relative viability ([1]; first compound 0.1581 µM) | relative viability ([1]; first compound 0.5 µM) | relative viability (Vandetanib + Linsitinib; first compound 0.02 µM) | relative viability (Vandetanib + Linsitinib; first compound 0.06325 µM) | relative viability (Vandetanib + Linsitinib; first compound 0.2 µM) | relative viability (Vandetanib + Linsitinib; first compound 0.6325 µM) | relative viability (Vandetanib + Linsitinib; first compound 2 µM) | relative viability ([2]; first compound 0.005 µM) | relative viability ([2]; first compound 0.01581 µM) | relative viability ([2]; first compound 0.05 µM) | relative viability ([2]; first compound 0.1581 µM) | relative viability ([2]; first compound 0.5 µM)
HCC-44 | 0.91 | 0.914 | 0.967 | 0.979 | 0.961 | 0.87 | 0.878 | 0.877 | 0.961 | 0.882 | 0.642 | 0.64 | 0.753 | 0.724 | 0.688 | – | – | – | – | –
EKVX | 0.415 | 0.396 | 0.345 | 0.291 | 0.176 | 0.94 | 1.13 | 1.1 | 1.31 | 0.996 | 1.04 | 0.948 | 0.962 | 0.793 | 0.493 | 0.8 | 0.833 | 0.83 | 0.79 | 0.777
NCI-H23 | 0.416 | 0.427 | 0.489 | 0.54 | 0.495 | – | 0.917 | 1.01 | 1.37 | 0.92 | 0.685 | 0.531 | 0.519 | 0.57 | 0.425 | 0.83 | 0.995 | 0.873 | 1.02 | 1.07
NCI-H2347 | 0.423 | 0.315 | 0.476 | 0.457 | 0.443 | 1.12 | 1.07 | – | 1.13 | 0.962 | 0.976 | 0.64 | 0.929 | 0.995 | 0.982 | 1.1 | 0.821 | – | 0.662 | 1.17
SK-LU-1 | 0.387 | 0.314 | 0.363 | 0.376 | 0.354 | 0.871 | – | 0.998 | 1.42 | 1.23 | 1.05 | 0.759 | 0.896 | 1.12 | 1.12 | 0.749 | 0.824 | 0.867 | 0.991 | 0.884
A549 | – | – | – | – | – | – | – | – | – | – | 0.718 | 0.498 | 0.711 | 0.587 | 0.495 | – | 1.03 | 0.971 | 1.05 | 0.728
LU99A | 0.378 | 0.428 | 0.337 | 0.359 | 0.376 | 1.08 | 1.14 | 1.1 | 1.27 | 1.43 | 0.487 | 0.529 | 0.599 | 0.522 | 0.55 | 0.727 | 0.853 | 0.701 | 0.843 | 0.789
NCI-H596 | – | – | – | – | – | 0.72 | 0.969 | 0.938 | 1.43 | 1.16 | 1.04 | 0.942 | 1.11 | 0.956 | 0.972 | 0.656 | 0.955 | 0.741 | 0.853 | 0.971
A-427 | 0.508 | 0.497 | 0.485 | 0.531 | 0.503 | 0.934 | 1.07 | 0.968 | 1.02 | 0.974 | 1.05 | 1.05 | 1.11 | 1.04 | 1.12 | 1.22 | 1.21 | 0.946 | 1.22 | 1.32
SW 900 | 0.624 | 0.547 | – | 0.48 | 0.409 | – | – | – | – | – | – | – | – | – | – | 0.63 | 0.714 | 0.704 | 1.02 | 0.985
COR-L 105 | 0.388 | 0.442 | 0.392 | 0.38 | 0.39 | 0.725 | 0.583 | 0.723 | 0.783 | 0.666 | 0.891 | 0.877 | 0.976 | 0.54 | 0.444 | 0.802 | 1.12 | 0.963 | 1.26 | 0.878
LOU-NH91 | 0.564 | 0.524 | 0.535 | 0.543 | 0.416 | 0.492 | 0.515 | 0.507 | 0.464 | 0.43 | 0.954 | 0.733 | 0.679 | 0.685 | 0.629 | 0.942 | 0.884 | 0.863 | 0.9 | 0.925
COR-L23 | 0.345 | 0.27 | 0.294 | 0.318 | 0.268 | 0.891 | 1 | 1.08 | 1.16 | 0.925 | 0.757 | 0.688 | 0.131 | 0.919 | 0.955 | 0.861 | 1.03 | 0.961 | 1.29 | 0.798
HCC-15 | 0.647 | 0.713 | 0.646 | 0.75 | 0.721 | 0.835 | 1.02 | 1.15 | 1.13 | 0.835 | 0.816 | 0.804 | 0.91 | 0.864 | 0.849 | 0.853 | 1.07 | 0.984 | 1.2 | 1.01
LCLC-103H | 0.439 | 0.521 | 0.388 | 0.478 | 0.406 | 0.96 | 0.984 | 1.07 | 1.23 | 0.91 | 1.09 | 1 | 1.23 | 0.929 | 1.03 | 0.801 | 0.8 | 0.894 | 0.828 | 0.737
